Legend:
porcine kidneys = test: Reperfusion of porcine kidneys following ischemic injury with endothelin-1 challenge; set-up: species or system Landrace cross female pigs; conditions: treated kidneys, ambrisentan 150 μg/l
Experimental: All experiments were undertaken in accordance with the Home Office animals (Scientific Procedures) Act 1986. Ten kidneys were retrieved from 5 Landrace cross female pigs weighing approximately 50 kg. Two pairs of kidneys underwent 20 minutes of warm ischaemic injury and were then flushed with 500 m1 of UW solution at 4° C. and stored on ice for 18 hours. After 18 hours cold storage, kidneys were prepared and flushed with 100 m1 of Ringer's solution 4° C. with or without liquid composition of Example 1 which is diluted to an ambrisentan concentration of 150 μg/l. They were then left at room temperature for 20 minutes. The remaining three pairs of kidneys were retrieved after 10 minutes of warm ischaemia and stored on ice for 6 hours. They were prepared and flushed as previously described then left at room temperature for 10 minutes before reperfusion.
Kidneys were perfused with 1 liter of diluted whole autologous heparinized blood at 38.0° C. for 6 hours to assess renal function and injury. 1000 μmol/l of creatinine (Sigma-Aldrich) was added to the circuit. In the treated kidneys the ambrisentan-containing liquid composition as described above (150 μg/l) was added to the reperfusion circuit 10 minutes before the start of reperfusion. In the control and treated kidneys after 2 h 50 min of reperfusion, endothelin-1 (Sigma-Aldrich) was added to the arterial line of reperfusion circuit to achieve a concentration of (20 pg/ml). A sample of the perfusate was taken from the renal vein during the post preservation flush. Perfusion data was recorded after 30 minutes of reperfusion then at each hour. Plasma and urine samples were taken pre-reperfusion, 30 minutes after reperfusion, then at hourly time points to measure renal function.

ETB receptor = biological target: T1, ETB receptor (Homo sapiens, UniProt P24530); test: Plasma endothelin-1 as measure of ETB receptor blockade in healthy human subjects; format: in vivo; conditions: Group B (high dose, target 80 and 160 ng/mL)
T1 construct: from tissue; host or cells: living healthy human subjects (in vivo study; plasma endothelin-1 measured)
T1 sequence (P24530 27-442): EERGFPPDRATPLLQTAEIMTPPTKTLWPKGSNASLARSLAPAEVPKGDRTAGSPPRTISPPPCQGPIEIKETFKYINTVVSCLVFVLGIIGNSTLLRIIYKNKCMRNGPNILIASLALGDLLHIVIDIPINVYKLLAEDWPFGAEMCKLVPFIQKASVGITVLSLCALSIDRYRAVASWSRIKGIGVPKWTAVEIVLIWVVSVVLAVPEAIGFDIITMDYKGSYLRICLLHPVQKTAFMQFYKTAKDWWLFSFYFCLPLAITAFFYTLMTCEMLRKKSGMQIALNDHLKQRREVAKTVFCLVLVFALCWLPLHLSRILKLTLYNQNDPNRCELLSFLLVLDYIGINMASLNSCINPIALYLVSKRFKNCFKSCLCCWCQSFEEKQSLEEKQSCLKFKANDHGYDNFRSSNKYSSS
Experimental: In this study a liquid composition of ambrisentan at a concentration of 5 mg/mL was administered to 20 healthy human subjects at varying rates of administration in order to achieve different ambrisentan concentrations in blood and over a period of 24 hours. Target concentrations in the low dose group were 20 and 40 ng/mL (Group A) after 4 hours and 16 hours respectively, and 80 and 160 ng/mL in the high dose group (Group B) after 4 hours and 16 hours respectively. […] Steady state for each target concentration was maintained for at least 8 hours prior to increasing the concentration. Ten subjects were assigned to Group A and ten subjects to Group B. Pharmacokinetic and plasma ET-1 samples were collected and analysed at different timepoints for up to 72 hours. Urine was collected for 24 hours and in intervals from 0-2 hours, 2-4 hours, 4-8 hours, 8-12, hours, 12-18 hours and 18-24 hours.
Finally, the effect of the different concentrations of ambrisentan on the ETB receptor blockade was determined by measuring plasma endothelin-1 at different timepoints of the study.

[1] = Raina et al; cited from earlier work
[2] = time 180 min (endothelin-1 20 pg/ml added after 2 h 50 min)
[3] = time 240 min (after endothelin-1)
[4] = time 300 min (after endothelin-1)
[5] = time 360 min (after endothelin-1)

## COC(c1ccccc1)(c1ccccc1)[C@H](Oc1nc(C)cc(C)n1)C(=O)O [ambrisentan]
Porcine kidneys; 1 h of reperfusion
  Oxygen consumption: 63%
Porcine kidneys; 3 h of reperfusion
  Oxygen consumption: 64%
Porcine kidneys; 6 h of reperfusion
  Oxygen consumption: 55%
Porcine kidneys; time 0 min
  Renal blood flow: 45 ml/min/100 g
  Renal resistance: 1.22 mmHg/min/100 g
Porcine kidneys; time 0.5 h
  Urine flow: 148 mL
Porcine kidneys; time 30 min
  Renal blood flow: 79 ml/min/100 g
  Renal resistance: 0.58 mmHg/min/100 g
Porcine kidneys; time 1 h
  Urine flow: 124 mL
Porcine kidneys; time 60 min
  Renal blood flow: 84 ml/min/100 g
  Renal resistance: 0.55 mmHg/min/100 g
Porcine kidneys; time 120 min
  Renal blood flow: 85 ml/min/100 g
  Renal resistance: 0.56 mmHg/min/100 g
Porcine kidneys; time 2 h
  Urine flow: 116 mL
Porcine kidneys; time 3 h
  Urine flow: 80 mL
Porcine kidneys; [2]
  Renal blood flow: 85 ml/min/100 g
  Renal resistance: 0.60 mmHg/min/100 g
Porcine kidneys; time 4 h
  Urine flow: 62 mL
Porcine kidneys; [3]
  Renal blood flow: 97 ml/min/100 g
  Renal resistance: 0.56 mmHg/min/100 g
Porcine kidneys; time 5 h
  Urine flow: 44 mL
Porcine kidneys; [4]
  Renal blood flow: 93 ml/min/100 g
  Renal resistance: 0.62 mmHg/min/100 g
Porcine kidneys; [5]
  Renal blood flow: 77 ml/min/100 g
  Renal resistance: 0.78 mmHg/min/100 g
ETB receptor
  increase in plasma endothelin-1 from baseline: more than 50%
[1]
  pharmacokinetic interactions with cyclosporine A and tacrolimus: absence of pharmacokinetic interactions

Source: patent publication US11642307B2, “Ambrisentan for use in the treatment of acute renal failure” (Noorik Biopharmaceuticals AG, priority 2016, dated 2023)
